Assay results as given in ChEMBL document CHEMBL3352580, “Teucrium polium phenylethanol and iridoid glycoside characterization and flavonoid inhibition of biofilm-forming Staphylococcus aureus” (2015).
Activity calls are given as the source filed them. The calls are words filed in the database; no cut-off is given here.

Columns and labels:
Staphylococcus aureus [1] = assay: Inhibition of biofilm formation in Staphylococcus aureus AH133 transformed with GFP assessed as zone of inhibition at 16 mg/ml after 24 hrs by confocal laser scanning microscopy; assay type: functional; details: for zone of inhibition at 16000 µg/mL: AH133, 24 h, read-out: IZ
Staphylococcus aureus [2] = assay: Inhibition of biofilm formation in Staphylococcus aureus AH133 transformed with GFP assessed as zone of inhibition at 10 to 20 ug/disc after 24 hrs by confocal laser scanning microscopy; assay type: functional, organism-based
Staphylococcus aureus [3] = assay: Inhibition of biofilm formation in Staphylococcus aureus AH133 transformed with GFP assessed as zone of inhibition at 40 to 80 ug/disc after 24 hrs by confocal laser scanning microscopy; assay type: functional, organism-based
Staphylococcus aureus [4] = assay: Inhibition of biofilm formation in Staphylococcus aureus AH133 transformed with GFP assessed as reduction in recovery of CFU at 80 ug/disc after 24 hrs by confocal laser scanning microscopy; assay type: functional, organism-based

SMILES	zone of inhibition at 16000 µg/mL (Staphylococcus aureus [1])	inhibition (Staphylococcus aureus [2])	inhibition (Staphylococcus aureus [3])	inhibition (Staphylococcus aureus [4])	inhibition (Staphylococcus aureus [1])
O=c1cc(-c2ccc(O)c(O)c2)oc2cc(O)c(O)c(O)c12 [6-HYDROXYLUTEOLIN]	8 mm	inactive	Active	Active	–
CC1(C)S[C@@H]2[C@H](NC(=O)[C@H](N)c3ccccc3)C(=O)N2[C@H]1C(=O)O	–	–	–	–	Active
COc1cc2oc(-c3ccc(O)c(O)c3)cc(=O)c2c(O)c1OC [CIRSILIOL]	10.3 mm	inactive	Active	Active	–
